In PubChem BioAssay AID179 (DTP/NCI, 2004):
Values joined by “and” are separate entries in the source; they are usually repeats but may differ in a detail not shown here. Equal entries are not always repeated. Active and inactive are the calls of the source.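 How the source made its calls: active means compounds giving half or more protection of infected cells from virus-caused growth loss, again on retest; inactive means the rest.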 Where a SMILES comes first, the peptide text is derived from it.

Tested on: CEM cells HIV-1 protection, formazan growth assay
Assay: NCI AIDS Antiviral Assay
Settings: for IC50: measured here: growth of uninfected CEM cells
How it was run: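 Category rules: moderately active means at least 50% protection on retest, and confirmed active means 100% protection reproducibly. The underlying data came from a formazan growth assay in HIV-1-infected CEM cells.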

SMILES	outcome	EC50 [µM]	IC50
Cc1cc(C2(c3cc(C)c(O)cc3C)OS(=O)(=O)c3ccccc32)c(C)cc1O	inactive	–	–
CC1(c2ccc[n+](Cc3ccccc3)c2)OCCO1	–	> 398	380 µM
COC(=O)[C@@H]1CCCCC[C@H]2C(CO)=C(C)C(=O)C12 (stereo partly specified)	–	> 200	> 200 µM
COCn1cnc2c(=O)nc(SC)n(-c3ccccc3)c21	–	> 200	> 200 µM
CCOC(=O)/C(=C\c1ccc(N(C)C)cc1)[Se]c1ccccc1	–	> 69.2	> 69.2 µM
CCOC(=O)c1sc2nc(SC)nc3c2c1NCN3c1ccccc1Cl	–	> 200	> 200 µM
CC(C)(C)NC(=O)NC12CC3CC(CC(F)(C3)C1)C2	–	> 26.9	> 26.9 µM
O=c1[nH]c(=O)n(C2CC(O)C(CO)O2)cc1OC/C=C/Cc1ccccc1 (stereo unspecified)	–	> 200	> 200 µM
O=C1N=NC(=O)c2ccccc21	–	> 200	> 200 µM
COc1ccccc1-c1n[nH]c(-c2ccccc2O)n1	–	> 200	> 200 µM
CC1(C)Oc2ccc(C3=NO[C@@H]4C(=O)N(c5ccc(Cc6ccc(N7C(=O)[C@H]8C(c9ccc%10c(c9)OC(C)(C)O%10)=NO[C@H]8C7=O)cc6)cc5)C(=O)[C@H]34)cc2O1	–	> 91.2	> 91.2 µM
CCOC(=O)/C(=C\c1ccc(Cl)cc1)P(=O)(OCC)OCC	–	> 15.1	14.1 µM
O=C1OC(C(O)CO)C(C(O)CO)OC1=O (stereo unspecified)	–	> 200	> 200 µM
COC(=O)C1CC=C(SC(=O)c2ccccc2)N1C(=O)c1ccccc1 (stereo unspecified)	–	> 200	> 200 µM
CC(C)C1COC(c2cccc(C3=N[C@@H](C(C)C)CO3)n2)=N1 (stereo partly specified)	–	> 24	> 24 µM
COc1cc(/C=C2\SC(=S)N(/C=C(/C#N)C(=O)c3ccc4ccccc4c3)C2=O)cc(OC)c1OC	–	> 200	14.8 µM
Cc1cc(C)c(C(=O)O)c(SSc2cc(C)cc(C)c2C(=O)O)c1	–	46.8	123 µM
COc1c(OC2OC(CO)C(O)C(O)C2O)cc2c(c1OC)-c1ccc(OC)c(=O)cc1[C@@H](NC(C)=O)CC2 (stereo partly specified)	inactive	–	–
Cc1ccc(/C=C2\CCCC(C(NO)c3ccc(C)cc3)C2=NO)cc1 (stereo unspecified)	–	> 5.75	> 5.75 µM
C[C@]12CC[C@H](O)C[C@@H]1CC[C@@H]1[C@@H]2CC[C@]2(C)c3nc4ccccc4cc3C[C@@H]12	–	> 200	8.13 µM
O=C1OC2C(O)COC2(O)C1(O)Cc1cc(O)c(O)c(Br)c1Br (stereo unspecified)	inactive	–	–

SMILES	outcome	EC50 [µM]	IC50
COc1ccc(-c2cc(-c3ccco3)c(C#N)c(=S)n2C2OC(CO)C(O)C(O)C2O)cc1 (stereo unspecified)	–	37.2	> 200 µM
Cc1csc2c(P(=O)(OC(C)C)OC(C)C)c(-c3ccccc3)cn12	–	> 200	33.1 µM
CCOC(=O)/C(C#N)=C/c1ccccc1F	–	> 309	> 309 µM
COc1ccc(-c2onc(-c3c(C)cc(C)cc3C)c2C2=NCCN2)cc1	–	> 72.4	> 72.4 µM
C1CCN(c2nc(=[N+]3CCCCC3)ss2)CC1	inactive	–	–
CC(=O)Oc1c(Br)cc(-c2oc(-c3cc(Br)c(OC(C)=O)c(Br)c3)c3ccccc23)cc1Br	–	> 100	38.9 µM
CC(=O)OCC1CCC(=C2C(=O)OC(C)(C)OC2=O)N1 (stereo unspecified)	–	> 200	> 200 µM
COC(=O)c1cc2ccc(O)c(O)c2cn1	–	> 195	2.24 µM and 2.34 µM
COc1ccc(CN2C(=S)SC(c3ccc(Cl)cc3)N2c2ccc(OC)cc2)cc1 (stereo unspecified)	–	> 200	> 200 µM
CCN=C(C#N)NCC	–	> 708	257 µM
CCOC(=O)c1ccccc1NNC(=O)CCC(=O)O	–	> 224	219 µM
COCCOCC(=O)N(CCn1ccc(NC(c2ccccc2)(c2ccccc2)c2ccccc2)nc1=O)CCn1cnc2nc(N)[nH]c(=O)c21	–	28.8	60.3 µM
NC1=NNC2(C(=O)N1)c1ccccc1-c1ccccc12	–	> 200	46.8 µM
CCCCCCCCCCCCCCCCOC1OC(CO)C(O)C(O)C1O (stereo unspecified)	–	> 9.33	> 9.33 µM
C(=N\NC1=NCCN1)/c1cccc2cc3ccncc3nc12	–	> 200	0.891 µM
c1ccc([P+](CCNCCNCC[P+](c2ccccc2)(c2ccccc2)c2ccccc2)(c2ccccc2)c2ccccc2)cc1	–	> 355	234 µM
O=C1C(O)=C(c2ccc(Br)cc2)C(=O)C(O)=C1c1ccc(Br)cc1	–	> 58.9	22.4 µM
C=C1CC[C@@](C)(c2ccc(CO)cc2)C1C (stereo partly specified)	inactive	–	–
CC(C)CC(N)C(=O)NC(CC(=O)O)C(=O)NC(CCCCN)C(=O)NC(C)C(=O)NC(CO)C(=O)NC(Cc1ccc(O)cc1)C(=O)NC(CO)C(=O)NC(C(=O)NC(CC(N)=O)C(=O)NC(Cc1cnc[nH]1)C(=O)O)C(C)O (stereo unspecified) (H-LDKASYSTNH-OH; configuration not given here)	–	> 21.9	> 21.9 µM
CCOC(=O)/C(C#N)=C/Nc1c(C)n(C)n(-c2ccccc2)c1=O	–	> 200	> 200 µM
O=C1CCNC/C1=C\c1ccccc1	–	> 6920	19.1 µM

SMILES	outcome	EC50 [µM]	IC50
COC(=O)CC(C(C(C)=O)C(=O)OCc1ccccc1)N1C(=O)OC(c2ccccc2)C1c1ccccc1 (stereo unspecified)	–	> 83.2	> 83.2 µM
O=P1(Oc2ccc(Cl)cc2)OCCS1 (stereo unspecified)	–	> 200	> 200 µM
Cc1[nH]n(C2=NCCN2)c(=O)c1Cc1ccccc1	–	> 200	> 200 µM
COc1ccc2c(O)c(Cl)c(=O)oc2c1	–	> 200	> 200 µM
CCN(CC)CCC(=O)c1ccc(Oc2ccc(C)cc2)cc1	–	> 200	28.8 µM
CC(=O)/C(=N\Nc1ccc(Cl)cc1)C(C)=Nc1ccc(C)cc1	–	> 200	30.2 µM
CCOC(=O)C[C@@]12CCCN[C@]1(C)CCc1ccccc12	inactive	–	–
COc1cc(C(=O)C/C(CCC(=O)Nc2ccc(Cl)cc2Cl)=N/Nc2nnc(C)n2N)ccc1O	–	> 50.1	> 50.1 µM
CC(=O)Nc1ccc(C(=O)NN2C(=O)C(Cl)C2c2ccc([N+](=O)[O-])cc2)cc1 (stereo unspecified)	–	> 200	112 µM
O=C1C(=O)N(C2CCCCC2)C(=S)N1C1CCCCC1	–	> 200	> 200 µM
S=C(N1CCN(c2ccc(Cl)c(Cl)c2)CC1)N1CCN(c2ccc(Cl)c(Cl)c2)CC1	–	> 200	10 µM
Clc1ccc(C2=NON(c3ncccn3)C3N=CC=CN23)cc1 (stereo unspecified)	–	> 15.8	> 15.8 µM
OCc1ccc2c(c1)CC1(Cc3ccc(/C=N/O)cc3C1)C2 (stereo unspecified)	–	> 200	0.891 µM
Nc1nc(NCCOCP(=O)(O)O)c([N+](=O)[O-])c(=O)[nH]1	–	178	> 200 µM
NCC1OC(OC2C(CO)OC(OC3C(O)C(N)CC(N)C3OC3OC(CO)C(O)C(O)C3N)C2O)C(N)C(O)C1O (stereo unspecified)	inactive	–	–
c1ccc2[nH]c(C3=NCCS3)nc2c1	–	> 1230	240 µM
COc1ccc(Cc2c(N)[nH]c(=O)[nH]c2=O)cc1	–	> 200	> 200 µM
CC[C@H]1CN2CCc3cc(OC)c(OC)cc3[C@@H]2C[C@@H]1C[C@H]1NCCc2c1[nH]c1ccc(O)cc21	inactive	–	–
Clc1ccc2c(c1)Sc1ccc(Cl)cc1S2	–	> 200	> 200 µM
CCOC(=O)C(CCC(N)=O)(CCC(=O)OC)C(=O)OCC	–	> 200	> 200 µM
